“Also recorded” adds a separate entry of the source. Active and inactive are the calls of the source. How the calls were made is not given here.
Tested on: CCRIS mutagenicity, Ames/micronucleus/aberration tests
Test: CCRIS mutagenicity studies
[1] = Test System: AMES SALMONELLA TYPHIMURIUM, Strain/Indicator: TA98, Metabolic Activation: NONE, Method: STANDARD PLATE
[2] = Test System: AMES SALMONELLA TYPHIMURIUM, Strain/Indicator: TA100, Metabolic Activation: RAT, LIVER, S-9, AROCLOR 1254, Method: STANDARD PLATE
[3] = Test System: AMES SALMONELLA TYPHIMURIUM, Strain/Indicator: TA100, Metabolic Activation: NONE, Method: STANDARD PLATE
[4] = Test System: AMES SALMONELLA TYPHIMURIUM, Strain/Indicator: TA1535, Metabolic Activation: NONE, Method: STANDARD PLATE

Measured: mutagenic call

O=C1C=Cc2c(ccc3c2ccc2ccccc23)C1=O
inactive: [1] inactive; negative | [2] inactive; negative

CC(=O)OCc1cc(C(C)=O)ccc1OC(C)=O
inactive: [4] inactive; negative | Test System: AMES SALMONELLA TYPHIMURIUM, Strain/Indicator: TA1538, Metabolic Activation: NONE, Method: STANDARD PLATE inactive; negative | Test System: E. COLI, Strain/Indicator: TK702, Metabolic Activation: NONE, Method: STANDARD PLATE inactive; negative
active: Test System: AMES SALMONELLA TYPHIMURIUM, Strain/Indicator: TA100(PKM101), Metabolic Activation: NONE, Method: STANDARD PLATE active; positive | [3] active; positive | Test System: E. COLI, Strain/Indicator: TK701(PKM101), Metabolic Activation: NONE, Method: STANDARD PLATE active; positive | Test System: E. COLI, Strain/Indicator: TK701, Metabolic Activation: NONE, Method: STANDARD PLATE active; positive | Test System: E. COLI, Strain/Indicator: TK702(PKM101), Metabolic Activation: NONE, Method: STANDARD PLATE active; positive

CC[C@@]1(O)C[C@H](O[C@H]2C[C@H](N(C)C)[C@H](O)[C@H](C)O2)c2c(cc3c(c2O)C(=O)c2c(O)cccc2C3=O)[C@H]1C(=O)OC
active: Test System: AMES SALMONELLA TYPHIMURIUM, Strain/Indicator: TA102, Metabolic Activation: NONE, Method: STANDARD PLATE active; positive | Test System: AMES SALMONELLA TYPHIMURIUM, Strain/Indicator: TA104, Metabolic Activation: NONE, Method: STANDARD PLATE active; positive

N[C@@H]1C[C@H]1c1ccccc1
inactive: [1] inactive; negative | Test System: AMES SALMONELLA TYPHIMURIUM, Strain/Indicator: TA98, Metabolic Activation: RAT, LIVER, S-9, AROCLOR 1254, Method: STANDARD PLATE inactive; negative | [3] inactive; negative | [2] inactive; negative | [4] inactive; negative | Test System: AMES SALMONELLA TYPHIMURIUM, Strain/Indicator: TA1535, Metabolic Activation: RAT, LIVER, S-9, AROCLOR 1254, Method: STANDARD PLATE inactive; negative | Test System: AMES SALMONELLA TYPHIMURIUM, Strain/Indicator: TA1537, Metabolic Activation: NONE, Method: STANDARD PLATE inactive; negative | Test System: AMES SALMONELLA TYPHIMURIUM, Strain/Indicator: TA1537, Metabolic Activation: RAT, LIVER, S-9, AROCLOR 1254, Method: STANDARD PLATE inactive; negative

CC(C)=CC1C(C(=O)OCN2C(=O)C3=C(CCCC3)C2=O)C1(C)C (stereo not given)
active: Test System: AMES SALMONELLA TYPHIMURIUM, Strain/Indicator: TA98 active; positive | Test System: AMES SALMONELLA TYPHIMURIUM, Strain/Indicator: TA98, Metabolic Activation: NONE active; positive | Test System: AMES SALMONELLA TYPHIMURIUM, Strain/Indicator: TA100 active; positive
inactive: Test System: AMES SALMONELLA TYPHIMURIUM, Strain/Indicator: TA98, Metabolic Activation: NONE, Method: MICROSUSPENSION inactive; negative | Test System: AMES SALMONELLA TYPHIMURIUM, Strain/Indicator: TA98, Metabolic Activation: S-9, Method: MICROSUSPENSION inactive; negative | Test System: AMES SALMONELLA TYPHIMURIUM, Strain/Indicator: TA100, Metabolic Activation: NONE inactive; negative | Test System: AMES SALMONELLA TYPHIMURIUM, Strain/Indicator: TA100, Metabolic Activation: NONE, Method: MICROSUSPENSION inactive; negative | Test System: AMES SALMONELLA TYPHIMURIUM, Strain/Indicator: TA100, Metabolic Activation: S-9, Method: MICROSUSPENSION inactive; negative

C=CCc1[c-]cccc1.C=CCc1[c-]cccc1.[Pt+2]
inactive: Test System: AMES SALMONELLA TYPHIMURIUM, Strain/Indicator: TA92, Metabolic Activation: NONE, Method: STANDARD PLATE inactive; negative | [1] inactive; negative | [3] inactive; negative | Test System: AMES SALMONELLA TYPHIMURIUM, Strain/Indicator: TA2410, Metabolic Activation: NONE, Method: STANDARD PLATE inactive; negative

COc1ccc(C)cc1N
inactive: Test System: AMES SALMONELLA TYPHIMURIUM, Strain/Indicator: TA98, Metabolic Activation: NONE, Method: PREINCUBATION inactive; negative | Test System: AMES SALMONELLA TYPHIMURIUM, Strain/Indicator: TA100, Metabolic Activation: NONE, Method: PREINCUBATION inactive; negative | Test System: AMES SALMONELLA TYPHIMURIUM, Strain/Indicator: TA1535, Metabolic Activation: HAMSTER, LIVER, S-9, PHENOBARBITAL AND BETA-NAPHTHOFLAVONE, Method: PREINCUBATION inactive; negative | Test System: AMES SALMONELLA TYPHIMURIUM, Strain/Indicator: TA1535, Metabolic Activation: NONE, Method: PREINCUBATION inactive; negative | Test System: AMES SALMONELLA TYPHIMURIUM, Strain/Indicator: TA1537, Metabolic Activation: NONE, Method: PREINCUBATION inactive; negative | Test System: E. COLI, Strain/Indicator: WP2UVRA, Metabolic Activation: HAMSTER, LIVER, S-9, PHENOBARBITAL AND BETA-NAPHTHOFLAVONE, Method: PREINCUBATION inactive; negative | Test System: E. COLI, Strain/Indicator: WP2 UVRA, Metabolic Activation: HAMSTER, LIVER, S-9, Method: STANDARD PLATE inactive; negative | Test System: E. COLI, Strain/Indicator: WP2 UVRA, Metabolic Activation: MOUSE, LIVER, S-9, AROCLOR 1254, Method: STANDARD PLATE inactive; negative | Test System: E. COLI, Strain/Indicator: WP2UVRA, Metabolic Activation: NONE, Method: PREINCUBATION inactive; negative | Test System: E. COLI, Strain/Indicator: WP2 UVRA, Metabolic Activation: NONE, Method: STANDARD PLATE inactive; negative | Test System: E. COLI, Strain/Indicator: WP2 UVRA, Metabolic Activation: RAT, LIVER, S-9, AROCLOR 1254, Method: STANDARD PLATE inactive; negative | Test System: E. COLI, Strain/Indicator: WP2 UVRA, Metabolic Activation: RAT, LIVER, S-9, Method: STANDARD PLATE inactive; negative | Test System: UDS RODENT HEPATOCYTES, Strain/Indicator: THY INCORP (NON-S-PHASE), Metabolic Activation: NONE, Method: AUTORADIOGRAPHY inactive; negative
active: End Point: In vitro chromosomal aberrations, Test System: Chinese hamster lung (CHL/IU) cells, Metabolic Activation: None active; positive (structural changes). toxicity at 1.2 mg/ml; also recorded: active; positive (structural changes). toxicity at 0.60 mg/ml; also recorded: active; positive (structural changes). toxicity at 0.8 mg/ml; no dose response observed | End Point: In vitro chromosomal aberrations, Test System: Chinese hamster lung (CHL/IU) cells, Metabolic Activation: Rat, Liver, S9, Phenobarbital and 5,6-benzoflavone active; positive (structural changes and ploidy). toxicity at 1.2 mg/ml; no dose respons | End Point: In vivo micronucleus, Test System: Polychromatic erythrocytes, Species: Mouse, Strain/Sex: C57BL/6TacBr-[KO]p53[TSG-p53], Route: Oral active; positive at all days | Test System: AMES SALMONELLA TYPHIMURIUM, Strain/Indicator: TA98, Metabolic Activation: HAMSTER, LIVER, S-9, AROCLOR 1254 (30%), Method: PREINCUBATION active; positive | Test System: AMES SALMONELLA TYPHIMURIUM, Strain/Indicator: TA98, Metabolic Activation: HAMSTER, LIVER, S-9, PHENOBARBITAL AND BETA-NAPHTHOFLAVONE, Method: PREINCUBATION active; positive | Test System: AMES SALMONELLA TYPHIMURIUM, Strain/Indicator: TA98, Metabolic Activation: RAT, LIVER, S-9, AROCLOR 1254 (30%), Method: PREINCUBATION active; positive | Test System: AMES SALMONELLA TYPHIMURIUM, Strain/Indicator: TA100, Metabolic Activation: HAMSTER, LIVER, S-9, AROCLOR 1254 (30%), Method: PREINCUBATION active; positive | Test System: AMES SALMONELLA TYPHIMURIUM, Strain/Indicator: TA100, Metabolic Activation: HAMSTER, LIVER, S-9, PHENOBARBITAL AND BETA-NAPHTHOFLAVONE, Method: PREINCUBATION active; positive | Test System: AMES SALMONELLA TYPHIMURIUM, Strain/Indicator: TA100, Metabolic Activation: RAT, LIVER, S-9, AROCLOR 1254 (30%), Method: PREINCUBATION active; positive | Test System: AMES SALMONELLA TYPHIMURIUM, Strain/Indicator: TA1537, Metabolic Activation: HAMSTER, LIVER, S-9, PHENOBARBITAL AND BETA-NAPHTHOFLAVONE, Method: PREINCUBATION active; positive

Reference: PubChem BioAssay AID1259407 (Chemical Carcinogenesis Research Information System (CCRIS), 2018)
